Patent publication US10035759B2, “Method of chromatographic separation” (The Procter & Gamble Company, priority 2015, dated 2018)

Test system: human TRPM8
Experiment: TRPM8 FLIPR assay: intracellular Ca2+ level in HEK-293 cells stably transfected with human TRPM8
Format: cell-based
Conditions: dose 30 uM
Description: TRPM8 activation was determined by measuring intracellular calcium ion (Ca^2+) level from transfected cells with the TRPM8 receptor gene, as described in CELL CULTURE PROTOCOL EXAMPLE, the results of which are shown in TABLES 2 and 3.
To determine what effect, if any, test compounds had on TRPM8 (SEQ ID NO: 1) activation the protocols listed below were used.
TRPM8 Protocol-FLIPR Assay
To determine whether TRPM8 is activated, the intracellular calcium ion (Ca^2+) level was measured from transfected cells with the TRPM8 receptor sequence (SEQ ID NO: 1). HEK-293 (human embryonic kidney) cells stably transfected with human TRPM8 were grown in 15 ml growth medium (high glucose DMEM (Dulbecco's Modification of Eagle's Medium) supplemented with 10% FBS (fetal bovine serum), 100 ug/ml penicillin/streptomycin, 5 μg/ml blasticindin, and 100 μg/ml zeocin) in a 75 cm^2 flask for 3 days at 37° C. in a mammalian cell culture incubator set at 5% CO2. Cells were detached with addition of 2 ml of trypsin-EDTA buffer (GIBCO® 25200, Invitrogen, Grand Island, N.Y.) for about 2-3 min. Trypsin was inactivated by addition of 8 ml growth medium. Cells were transferred to a 50 ml tube and centrifuged at 850 rpm for 3 minutes to remove medium. After centrifugation, a pellet of cells was formed in the bottom of the tube separating them from the supernatant solution. […] Fluo-4 AM is a fluorescent dye used for quantifying cellular Ca^2+ concentrations in the 100 nM to 1 microM range. […]
The pelleted cells were re-suspended in 10 ml assay buffer and 90 al aliquots (˜50,000 cells) per well delivered to a 96-well assay plate containing 10 al of test compounds (1 mM in assay buffer, […]) or buffer control and incubated at room temperature for 30 minutes. After 30 minutes, a plate was placed into a fluorometric imaging plate reader (FLIPR TETRA from Molecular Devices, Sunnyvale, Calif.) and basal fluorescence recorded (excitation wave length 488 nm and emission wave length 510 nm). Then 20 μl of 180 μM solution of TRPM8 agonist WS5 coolant was added to the assay buffer and the fluorescence signals were automatically recorded by FLIPR. For determining the direct effect of test compounds on TRPM8, fluorescence was measured immediately after addition of each compound (TABLES 2 and 3). Additional discussion of the FLIPR method can be found in Smart et al., Characterization using FLIPR of human vanilloid VR1 receptor pharmacology, European Journal of Pharmacology 417, 51-58 (2001) and Liu et al., Development and validation of a platelet calcium flux assay using a fluorescent imaging plate reader, Analytical Biochemistry 357, 216-224 (2006).

CCOC(=O)CNC(=O)C1CC(C)CCC1C(C)C (stereo not shown) [WS-5, N-ethoxycarbonylmethyl-ρ-menthan-3-carboxamide]
100.0%: 50 sec % of WS5 (50 sec) | 3 min % of WS5 (3 min) | 5 min % of WS5 (5 min) | 10 min % of WS5 (10 min)
